# In patent US4329295A, “24-Cyclopropylcholene-3β, 22-diols and esters thereof” (G. D. Searle & Co., priority 1981, dated 1982):
# Test system: HMG Co A reductase
# Experiment: Reduction of HMG Co A reductase activity in liver microsomes of rats treated with 20,25-diazacholesterol and test compound
# Assay type: in vivo, rat
# Conditions: male CD rats, test compound given last 3 days with 20,25-diazacholesterol, [14C]-mevalonic acid formation vs control
# Procedure: Male rats of the CD strain from Charles River weighing 180-250 g., initially being kept on a regular laboratory diet, are used. The rats are maintained in reverse light-cycle room for 3-6 days. 20,25-Diazacholesterol is administered for a total of 6 days at a dose of 5 mg/kg/day (IG). The last 3 days the test compound is administered along with the 20,25-diazacholesterol. Both compounds are given 2 hours prior to the test on last day. The rats are anesthetized with ether, sacrificed, and the livers removed. Liver microsomes are collected by differential centrifugation after homogenation. Liver microsomes are used as the source of the HMG Co A reductase. Details of the assay are reported in L. W. White and H. Rudney, Biochemistry 9, 2713 (1970); Brown et al., J. Biol. Chem. 248, 4731 (1973); and C. A. Edwards, Biochem. Biophys. Acts 409, 39 (1975). The percent change in formation of [^ 14 C]-mevalonic acid from [^14 C]-HMG Co A is used as a measure of enzyme activity for treated groups versus control groups of rats. If the treated groups have less activity, and the decrease is statistically significant at P≤0.05, the compound is rated active.
structure (smiles),measurement,setting,value
"C[C@@H]([C@H]1CC[C@H]2[C@@H]3CC=C4C[C@@H](O)CC[C@]4(C)[C@H]3CC[C@]12C)[C@@H](O)CCC1CC1 [24-cyclopropylchol-5-ene-3β,22S-diol]",inhibition of HMG Co A reductase activity,0.5 mg/kg (IG),32%
same,inhibition of HMG Co A reductase activity,5 mg/kg (IG),79%
